In patent US9403776B2, “Aryl- and heteroaryl-substituted tetrahydrobenzazepines and use thereof to block reuptake of norepinephrine, dopamine, and serotonin” (Albany Molecular Research, Inc., priority 2005, dated 2016):
Structures can show the parent of a compound that is named as a salt.

Row | melting point [°C] | Structure (SMILES)
1 | 64 to 66 | CCN1CCC(c2ccccc2)c2ccc(N3CCOCC3)cc2C1 (single isomer, unassigned; (+)) (as salt: maleate) [Example 57 (+), (+)-4-(2-ethyl-5-phenyl-2,3,4,5-tetrahydro-1H-benzo[c]azepin-8-yl)morpholine]
2 | 108 to 110 | c1ccc(CN2CCC(c3ccccc3)c3ccc(N4CCOCC4)cc3C2)cc1 (single isomer, unassigned; (+)) (as salt: maleate) [Example 61, (+)-4-(2-benzyl-5-phenyl-2,3,4,5-tetrahydro-1H-benzo[c]azepin-8-yl)morpholine]
3 | 87 to 90 | CN1CCC(c2ccc(F)cc2)c2ccc(N3CCOCC3)cc2C1 (single isomer, unassigned; (+)) (as salt: maleate) [Example 85, (+)-4-(5-(4-fluorophenyl)-2-methyl-2,3,4,5-tetrahydro-1H-benzo[c]azepin-8-yl)morpholine]
4 | 173 to 176 | Cc1ccc(-c2ccc3c(c2)CN(C)CCC3c2ccc(F)cc2)nn1 (single isomer, unassigned; (+)) (as salt: maleate) [Example 89, (+)-5-(4-fluorophenyl)-2-methyl-8-(6-methylpyridazin-3-yl)-2,3,4,5-tetrahydro-1H-benzo[c]azepine]
5 | 103 to 105 | CN1CCC(c2ccccc2)c2ccc(C(C)(C)O)cc2C1 (single isomer, unassigned; (+)) (as salt: tartrate) [Example 18, (+)-2-(2-methyl-5-phenyl-2,3,4,5-tetrahydro-1H-benzo[c]azepin-8-yl)propan-2-ol]
6 | 124 to 127 | CN1CCC(c2ccccc2)c2ccc(CN3CCOCC3)cc2C1 (single isomer, unassigned; (+)) (as salt: tartrate) [Example 22, (+)-4-((2-methyl-5-phenyl-2,3,4,5-tetrahydro-1H-benzo[c]azepin-8-yl)methyl)morpholine]
7 | 102 to 104 | Cc1nc(-c2ccc3c(c2)CN(C)CCC3c2ccccc2)no1 (single isomer, unassigned; (+)) (as salt: tartrate) [Example 33, (+)-5-methyl-3-(2-methyl-5-phenyl-2,3,4,5-tetrahydro-1H-benzo[c]azepin-8-yl)-1,2,4-oxadiazole]
8 | 93 to 96 | OCCN1CCC(c2ccccc2)c2ccc(N3CCOCC3)cc2C1 (single isomer, unassigned; (+)) (as salt: tartrate) [Example 59, (+)-2-(8-morpholino-5-phenyl-4,5-dihydro-1H-benzo[c]azepin-2(3H)-yl)ethanol]
9 | 102 to 105 | FCCN1CCC(c2ccccc2)c2ccc(N3CCOCC3)cc2C1 (single isomer, unassigned; (+)) (as salt: tartrate) [Example 60, (+)-4-(2-(2-fluoroethyl)-5-phenyl-2,3,4,5-tetrahydro-1H-benzo[c]azepin-8-yl)morpholine]
10 | 119 to 121 | CN1CCC(c2ccccc2)c2ccc(N3CCN(c4ncccn4)CC3)cc2C1 (single isomer, unassigned; (+)) (as salt: tartrate) [Example 69, (+)-2-methyl-5-phenyl-8-(4-(pyrimidin-2-yl)piperazin-1-yl)-2,3,4,5-tetrahydro-1H-benzo[c]azepine]
11 | 142 to 144 | CN1CCC(c2ccccc2)c2ccc(-c3ccc4nccn4c3)cc2C1 (single isomer, unassigned; (+)) (as salt: tartrate) [Example 73, (+)-8-(imidazo[1,2-a]pyridin-6-yl)-2-methyl-5-phenyl-2,3,4,5-tetrahydro-1H-benzo[c]azepine]
12 | 112 to 115 | Cc1ccc(-c2ccc3c(c2)CN(C)CCC3c2ccc(C#N)c(F)c2)nn1 (single isomer, unassigned; (+)) (as salt: tartrate) [Example 92 (+), (+)-2-fluoro-4-(2-methyl-8-(6-methylpyridazin-3-yl)-2,3,4,5-tetrahydro-1H-benzo[c]azepin-5-yl)benzonitrile]
